Key:
[1] = tested on: HCV 1b genotype replicon (strain Con1, SGR 11-7 cells); experiment: HCV replicon assay, qRT-PCR, genotype 1b replicon cell line (SGR 11-7); assay type: cell-based; conditions: HCV genotype 1b replicon, HCV RNA by qRT-PCR normalized to GAPDH RNA
From the text: (§1) HCV replicon cell lines (kindly provided by R. Bartenschlager) isolated from colonies as described by Lohman et al. (Lohman et al. (1999) Science 285: 110-113, expressly incorporated by reference in its entirety) and used for all experiments. One of the HCV replicon cell lines (strain Con1, genotype 1b) has the nucleic acid sequence set forth in EMBL Accession No.: AJ242651, the coding sequence of which is from nucleotides 1801 to 8406. Another replicon cell line (strain H77, genotype 1a) was constructed as described by Yi et al. (Yi et al. (2004) Journal of Virology 78(15):7904-15). […]
(§2) EC50 values of single agent compounds were determined by HCV RNA detection using quantitative RT-PCR, according to the manufacturer's instructions, with a TAQMAN® One-Step RT-PCR Master Mix Reagents Kit (Cat# AB 4309169, Applied Biosystems) on an ABI Model 7500 thermocycler. EC50 values of combinations are similarly determined by HCV RNA detection using quantitative RT-PCR. The TAQMAN primers to use for detecting and quantifying HCV RNA obtained from Integrated DNA Technologies. HCV RNA is normalized to GAPDH RNA levels in drug-treated cells, which is detected and quantified using the Human GAPDH Endogenous Control Mix (Applied Biosystems, AB 4310884E). […] Chemical agent cytotoxicity is evaluated using an MTS assay according to the manufacturer's directions (Promega). […]

[2] = tested on: HCV 1a genotype replicon (strain H77, Huh-1a7 cells); experiment: HCV replicon assay, qRT-PCR, genotype 1a replicon cell line (Huh-1a7); assay type: cell-based; conditions: HCV genotype 1a replicon, HCV RNA by qRT-PCR normalized to GAPDH RNA
From the text: as §1, §2

Compound	EC50 [1]	EC50 [2]	EC50 ([1]; Hepatitis C virus)	EC50 ([2]; Hepatitis C virus)
Allisporivir	< 200 nM	< 200 nM		
CC(C)CCCCN1CCOCC1 [Example 1]			< 200 nM	< 200 nM

Reference: patent US8906853B2, “[N-Me-4-hydroxyleucine]-9-cyclosporin analogues for treatment and prevention of hepatitis C infection” (Enanta Pharmaceuticals, Inc., priority 2012, dated 2014)
